In patent US20260248810A1, “COMPOSITIONS FOR TREATING A SUBJECT FROM SEXUAL DYSFUNCTION” (priority 2023, published 2026):

How the values were obtained:
[1] = Plasma total and free testosterone after sublingual androgen intake in two male patients; conditions: blood plasma 15 minutes after sublingual intake, 5 mg T, or 5 mg T + 5 mg DHT; for Free T: measured, not calculated; for concentration at 15 min: human, plasma, other: sublingual, 5 mg, Total T
Description: (§1) The first example concerns two male heterosexual patients with sexual problems (erection problems and reduced sexual arousal). […] This prompted two alternative forms of treatment. The first treatment involved taking 5 mg sublingual testosterone (in a solution consisting of alcohol, denaturalized water, testosterone and cyclodextrins) followed 2.5 hours later by taking Viagra (sildenafil 50 mg). The second treatment consisted of simultaneously taking 5 mg sublingual testosterone and 5 mg sublingual dihydrotestosterone (DHT) (in a solution consisting of alcohol, denaturalized water, DHT and cyclodextrins), followed after 2.5 hours by taking Viagra (50 mg). The testosterone and DHT solutions were prepared by a pharmacist on the request of a general practitioner. On both treatment days, patients were asked to engage in sexual activity between 1 and 1.5 hours after taking Viagra. […] Patients were also asked to answer some questions about their sexual arousal immediately before and within an hour after sexual activity.
The table below describes the effects of the different treatments on ‘total testosterone’ and ‘free testosterone (i.e. measured, not calculated)’ for both patients: […]

[2] = sublingually with cyclodextrins; women about 0.1-2 mg, men about 0.5-20 mg; cited from earlier work
[3] = tested on: male heterosexual patients with sexual problems (erection problems and reduced sexual arousal); assay: Self-rated sexual arousal (scale 1 to 10) before and during sexual activity, sublingual androgen(s) followed by Viagra; type: in vivo, human; conditions: history of the two male patients before the alternative treatments
Description: as §1

[4] = cited from earlier work

For C[C@]12CC[C@H]3[C@@H](CCC4=CC(=O)CC[C@@]43C)[C@@H]1CC[C@@H]2O [T, 17-β-hydroxyandrost-4-en-3-one], the “Free T” value ([1]; Patient 1) was 440 pml/L, the “Free T” value ([1]; Patient 2) was 1030 pml/L and the concentration at 15 min ([1]; Patient 1) was 28.7 nM. For the same compound, the concentration at 15 min ([1]; Patient 2) was 43.9 nM and the “time to pharmacological peak in testosterone” value [2] was “about 15 minutes”.

With CCCc1nn(C)c2c(=O)[nH]c(-c3cc(S(=O)(=O)N4CCN(C)CC4)ccc3OCC)nc12 [Viagra, sildenafil] the “effect of the usual treatments on the sexual problems” value [3] was “little or no effect”.

For CC[C@H](C)[C@@H]1NC(=O)[C@H](Cc2ccc(O)cc2)NC(=O)[C@@H](N)CSSC[C@@H](C(=O)N2CCC[C@H]2C(=O)N[C@@H](CC(C)C)C(=O)NCC(N)=O)NC(=O)[C@H](CC(N)=O)NC(=O)[C@H](CCC(N)=O)NC1=O [oxytocin], the “time of behavioral and neural effects after administration” value ([4]; dosages between 20-50 IE) is given as 15 to 90 min, the “T-max of oxytocin levels in the blood circulation” value ([4]; intranasal administration) is given as “approximately 15 minutes” and the “return of oxytocin levels to baseline” value ([4]; intranasal administration) is given as “approximately 90 minutes”.
